Reference: patent US20220016060A1, “USE OF SODIUM 2-(3-PENTYLPHENYL)ACETATE IN THE TREATMENT OF ALSTRÖM SYNDROME” (LIMINAL BIOSCIENCES LIMITED, priority 2018, published 2022)

Columns and labels:
Assay type in all cases: in vivo, human
[1] = system: ALMS patients; test: Histological examination of adipocyte tissue, average adipocyte area
Protocol: The study was a Phase 2, single-centre, single-arm, open-label study of sodium 2-(3-pentylphenyl)acetate administered at a total daily oral dose of 800 mg for up to 72 weeks in subjects with ALMS was undertaken. The initial duration of the study was 24 weeks, and subjects were offered to enrol into an extension phase of 36 or 48 weeks. The schedule of study procedures for the enrolment, intervention, and assessments for participants is outlined in FIG. 1. Sodium 2-(3-pentylphenyl)acetate was formulated in soft gelatine capsules containing 200 mg of Sodium 2-(3-pentylphenyl)acetate (amorphous powder) per capsule, polyethylene glycol 400, National Formulary (NF), hydrochloric acid (for pH adjustment), and water. Histological examination of adipocyte tissue in an ALMS subject (before study drug treatment) was characterized by hypertrophy and coalescence of adipocytes, forming giant vesicular vacuolation/steatosis (FIG. 2A). […] Decreases in average adipocyte area from baseline ranged from 11% to 26%. Of note, the largest increase in average adipocyte area from baseline occurred in Subject 826-001-012 (25%), who had ongoing medical histories of hypothyroidism, myocardial ischemia, T2D, chronic kidney disease, and dyslipidemia. This subject was also characterized as obese with a baseline BMI of 38.13 kg/m^2.

[2] = system: ALMS patients; test: C-peptide; details: for Change from Baseline C-Peptide, Mean / Change from Baseline C-Peptide, Median: 800 mg daily oral
Protocol: (§1) The study was a Phase 2, single-centre, single-arm, open-label study of sodium 2-(3-pentylphenyl)acetate administered at a total daily oral dose of 800 mg for up to 72 weeks in subjects with ALMS was undertaken. The initial duration of the study was 24 weeks, and subjects were offered to enrol into an extension phase of 36 or 48 weeks. The schedule of study procedures for the enrolment, intervention, and assessments for participants is outlined in FIG. 1. Sodium 2-(3-pentylphenyl)acetate was formulated in soft gelatine capsules containing 200 mg of Sodium 2-(3-pentylphenyl)acetate (amorphous powder) per capsule, polyethylene glycol 400, National Formulary (NF), hydrochloric acid (for pH adjustment), and water.

[3] = system: ALMS patients; test: HOMA-B based on C-peptide and fasting plasma glucose; details: for Change from Baseline HOMA-B Based on C-Peptide and FPG, Mean / Change from Baseline HOMA-B Based on C-Peptide and FPG, Median: 800 mg
Protocol: as §1, with “water. E) Homeostasis Model Assessment for Steady State Beta-Cell Function Based on C-Peptide and Fasting Plasma Glucose (HOMA-B [C-Peptide/FPG]) The effect of sodium 2-(3-pentylphenyl)acetate on HOMA-B (C-peptide/FPG) was assessed, and the results are presented in Table 24.” for “water.”

[4] = 800 mg, Week 24, mean of subjects
[5] = 800 mg, Week 24, median of subjects
[6] = Subject 826-001-001, 204-day break in treatment
[7] = Subject 826-001-007, 32-day break in treatment

CCCCCc1cccc(CC(=O)[O-])c1.[Na+] [sodium 2-(3-pentylphenyl)acetate]
Average Adipocyte Area, % Change from Baseline, Mean [1, 4]: −9%
Average Adipocyte Area, Mean [1, 4]: 5550.7 μm^2
Average Adipocyte Area, % Change from Baseline, Median [1, 5]: −12%
Average Adipocyte Area, Median [1, 5]: 5195.1 μm^2
subjects in whom average adipocyte area decreased from baseline ([1]; 6/9 subjects, after 24 weeks): 66.7%
largest increase in average adipocyte area from baseline ([1]; Subject 826-001-012, after 24 weeks): 25%
histological examination of adipocyte tissue ([1]; an ALMS subject, after 24 weeks of treatment with 800 mg, FIG. 2B): more distinct adipocytes were seen that were smaller in size with no observed coalescence
Change from Baseline C-Peptide, Mean ([2]; EP Week 12 (Week 36), N=10): -350.90 pmol/L
Change from Baseline C-Peptide, Median ([2]; EP Week 12 (Week 36), N=10): 6.00 pmol/L
Change from Baseline C-Peptide, Mean ([2]; EP Week 24 (Week 48), N=9): -286.67 pmol/L
Change from Baseline C-Peptide, Median ([2]; EP Week 24 (Week 48), N=9): -40.00 pmol/L
Change from Baseline C-Peptide, Mean ([2]; EP Week 36 (Week 60), N=8): 219.88 pmol/L
Change from Baseline C-Peptide, Median ([2]; EP Week 36 (Week 60), N=8): -31.00 pmol/L
Change from Baseline C-Peptide, Mean ([2]; EP Week 48 (Week 72), N=3): 810.00 pmol/L
Change from Baseline C-Peptide, Median ([2]; EP Week 48 (Week 72), N=3): 737.00 pmol/L
increase in C-peptide from baseline [2, 6]: 817 pmol/L
increase in C-peptide from baseline ([2]; Subject 826-001-004, 30-day break in treatment): 1.757e+06 pmol/L
increase in C-peptide from baseline ([2]; Subject 826-001-005, 39-day break in treatment): 737 pmol/L
increase in C-peptide from baseline [2, 7]: 3580 pmol/L
Change from Baseline C-Peptide, Mean ([2]; Week 12, N=12): 473.50 pmol/L
Change from Baseline C-Peptide, Median ([2]; Week 12, N=12): 102.50 pmol/L
Change from Baseline C-Peptide, Mean ([2]; Week 24, N=12): 41.25 pmol/L
Change from Baseline C-Peptide, Median ([2]; Week 24, N=12): 84.50 pmol/L
Change from Baseline HOMA-B Based on C-Peptide and FPG, Mean ([3]; EP Week 12 (Week 36), N 10): 1.70
Change from Baseline HOMA-B Based on C-Peptide and FPG, Median ([3]; EP Week 12 (Week 36), N 10): 16.50
Change from Baseline HOMA-B Based on C-Peptide and FPG, Mean ([3]; EP Week 24 (Week 48), N 9): 24.57
Change from Baseline HOMA-B Based on C-Peptide and FPG, Median ([3]; EP Week 24 (Week 48), N 9): −1.90
Change from Baseline HOMA-B Based on C-Peptide and FPG, Mean ([3]; EP Week 36 (Week 60), N 8): 1.42
Change from Baseline HOMA-B Based on C-Peptide and FPG, Median ([3]; EP Week 36 (Week 60), N 8): 8.00
Change from Baseline HOMA-B Based on C-Peptide and FPG, Mean ([3]; EP Week 48 (Week 72), N 3): 60.17
Change from Baseline HOMA-B Based on C-Peptide and FPG, Median ([3]; EP Week 48 (Week 72), N 3): 89.40
Change from Baseline HOMA-B Based on C-Peptide and FPG, Mean ([3]; Week 12, N 11): 52.58
Change from Baseline HOMA-B Based on C-Peptide and FPG, Median ([3]; Week 12, N 11): 35.60
Change from Baseline HOMA-B Based on C-Peptide and FPG, Mean ([3]; Week 24, N 12): −1.60
Change from Baseline HOMA-B Based on C-Peptide and FPG, Median ([3]; Week 24, N 12): 0.60
subjects in whom HOMA-B (C-peptide/FPG) increased from baseline ([3]; 9/12 subjects): 75.0%
reduction in HOMA-B (C-peptide/FPG) [3, 6]: 62.4
reduction in HOMA-B (C-peptide/FPG) [3, 7]: 33.4
reduction in HOMA-B (C-peptide/FPG) ([3]; Subject 826-001-013, 30-day break in treatment): 96.7
